Measurements taken from ChEMBL document CHEMBL1133185, “Inhibition of clinically relevant mutant variants of HIV-1 by quinazolinone non-nucleoside reverse transcriptase inhibitors” (J Med Chem, 2000).
pIC50: −log10 of the molar value.

Columns and labels:
[1] = system: Human immunodeficiency virus 1; test: Compound was evaluated for antiviral activity against L100I mutant virus; format: functional
[2] = system: Human immunodeficiency virus 1; test: Antiviral activity toward K103N mutant HIV-1 virus as protein binding adjusted (PB adj).; format: functional
[3] = system: Human immunodeficiency virus 1; test: Antiviral activity against HIV-1 K103N mutant virus.; format: functional
[4] = molecular target: Human immunodeficiency virus type 1 reverse transcriptase (Human immunodeficiency virus 1, UniProt Q72547); test: Inhibition of HIV-1 reverse transcriptase.
[5] = system: Human immunodeficiency virus 1; test: Antiviral activity was evaluated for the inhibition of wild-type RF strain of HIV-1 in an in vitro enzyme assay.; format: functional
[6] = system: Human immunodeficiency virus 1; test: Compound was evaluated for the inhibition of human plasma protein binding adjusted (PB Adj) wild-type RF strain of HIV-1; format: functional; settings: Human immunodeficiency virus 1, Plasma
Homo sapiens [7] = species on record: Homo sapiens; test: (§1) percentage of the free compound in human serum; format: cell-free
Homo sapiens [8] = species on record: Homo sapiens; test: (§2) percentage of the free compound in tissue culture medium
[9] = molecular target: Human immunodeficiency virus type 1 reverse transcriptase (Human immunodeficiency virus 1) (UniProt Q72547); test: Compound was evaluated for the inhibition of HIV-1 Reverse transcriptase
[10] = system: Human immunodeficiency virus 1; test: Plasma Potency against Mutant HIV-1 K103N; format: functional; settings: Human immunodeficiency virus 1, Plasma
[11] = system: Human immunodeficiency virus 1; test: Potency against Mutant HIV-1 K103N; format: functional
[12] = system: Human immunodeficiency virus 1; test: Calculated Potency against Mutant HIV-1 K103N; format: functional
[13] = system: Human immunodeficiency virus 1; test: Calculated Potency against Mutant HIV-1 sL100I; format: functional
[14] = system: Human immunodeficiency virus 1; test: Plasma Potency against Mutant HIV-1 sL100I; format: functional; settings: Human immunodeficiency virus 1, Plasma
[15] = system: Human immunodeficiency virus 1; test: Potency against Mutant HIV-1 sL100I; format: functional
MT2 [16] = test: Antiviral activity against HIV-2 in MT-2 cells by yield assay; format: functional; settings: Homo sapiens
MT2 [17] = test: Antiviral activity against RF strain of HIV in MT-2 cells by RNA assay; format: functional; settings: Homo sapiens
MT2 [18] = test: Antiviral activity against RF strain of HIV in MT-2 cells by yield assay; format: functional; settings: Homo sapiens
MT2 [19] = test: Protein Binding was evaluated by PB shift in MT-2 by RNA assay; format: functional; settings: Homo sapiens
[20] = system: Human immunodeficiency virus 1; test: Calculated Potency against Mutant HIV-1 sV179D/L100I/Y181C; format: functional
[21] = system: Human immunodeficiency virus 1; test: Plasma Potency against Mutant HIV-1 sV179D/L100I/Y181C; format: functional
[22] = system: Human immunodeficiency virus 1; test: Potency against Mutant HIV-1 sV179D/L100I/Y181C; format: functional
[23] = system: Human immunodeficiency virus 1; test: Antiviral activity against Thai 9466, a wild-type clinical strain of HIV in PBMC by P24 assay; format: functional
[24] = system: Human immunodeficiency virus 1; test: Antiviral activity against A018C, Zidovudine resistant clinical strain of HIV in PBMC by P24 assay; format: functional
[25] = system: Human immunodeficiency virus 1; test: Compound was evaluated for the inhibition of wide-type RF strain of HIV-1; format: functional
[26] = system: Human immunodeficiency virus 1; test: Plasma antiviral activity was evaluated for RF strain of HIV-1; format: functional
Homo sapiens [27] = species on record: Homo sapiens; test: as §1; format: functional
Homo sapiens [28] = species on record: Homo sapiens; test: as §2; format: functional
[29] = system: Human immunodeficiency virus 1; test: Compound was evaluated for the inhibition of wilde-type RF strain of HIV-1; format: functional
MT2 [30] = test: Antiviral activity against E, Zidovudine resistant clinical strain of HIV in MT-2 cells by yield assay; format: functional; settings: Homo sapiens
[31] = system: Human immunodeficiency virus 1; test: Potency of second-generation NNRTIs against Mutant HIV-1 K103N free drug; format: functional
[32] = system: Human immunodeficiency virus 1; test: Potency of second-generation NNRTIs against Mutant HIV-1 K103N plasma; Vlaue ranges from 3400-8100; format: functional
[33] = system: Human immunodeficiency virus 1; test: In vitro antiviral activity against HIV-1 (L100I).; format: functional
[34] = system: Human immunodeficiency virus 1; test: Potency of second-generation NNRTIs against Mutant HIV-1 sL100I; format: functional
[35] = system: Human immunodeficiency virus 1; test: Potency of second-generation NNRTIs against Mutant HIV-1 sL100I plasma; Value ranges from 6600-15700; format: functional
MT2 [36] = test: Antiviral activity of Protein Binding of compound was evaluated for HIV-2 virus expressed MT-2 by yield; format: functional, Human immunodeficiency virus 2; settings: Homo sapiens
MT2 [37] = test: Antiviral activity of Protein Binding of compound was evaluated for E virus expressed MT-2 by yield; format: functional, Human immunodeficiency virus 1; settings: Homo sapiens
MT2 [38] = test: Antiviral activity of Protein Binding of compound was evaluated for PB shift virus expressed MT-2 by RNA; format: functional, Human immunodeficiency virus 1; settings: Homo sapiens
MT2 [39] = test: Antiviral activity of Protein Binding of compound was evaluated for RF virus expressed MT-2 by RNA; format: functional, Human immunodeficiency virus 1; settings: Homo sapiens
MT2 [40] = test: Antiviral activity of Protein Binding of compound was evaluated for RF virus expressed MT-2 by yield; format: functional, Human immunodeficiency virus 1; settings: Homo sapiens
[41] = system: Human immunodeficiency virus 1; test: Potency of second-generation NNRTIs against Mutant HIV-1 sV179D/L100I/Y181C; format: functional
[42] = system: Human immunodeficiency virus 1; test: Potency of second-generation NNRTIs against Mutant HIV-1 sV179D/L100I/Y181C free drug; format: functional
[43] = system: Human immunodeficiency virus 1; test: Potency of second-generation NNRTIs against Mutant HIV-1 sV179D/L100I/Y181C plasma; value ranges from 130000-309500; format: functional
[44] = system: Human immunodeficiency virus 1; test: Antiviral activity of Protein Binding of compound was evaluated for A 018C virus expressed PBMC by P24; format: functional
[45] = system: Human immunodeficiency virus 1; test: Antiviral activity of Protein Binding of compound was evaluated for Thai 9466 virus expressed PBMC by P24; format: functional
[46] = percentage in tissue culture medium
Homo sapiens [47] = species on record: Homo sapiens; test: percentage in human serum; value ranges from -0.2-0.5; format: functional
[48] = system: Human immunodeficiency virus 1; test: Potency of second-generation NNRTIs against Mutant HIV-1 sL100I free drug; format: functional
[49] = system: Human immunodeficiency virus 1; test: Potency of second-generation NNRTIs against Mutant HIV-1 K103N; format: functional
[50] = molecular target: Human immunodeficiency virus type 1 reverse transcriptase (Human immunodeficiency virus 1) (UniProt Q72547); settings: Plasma
Description: Effect of human plasma protein binding on antiviral efficacy.

Work on O=C1Nc2ccc(F)c(Cl)c2[C@@](C#Cc2ccccn2)(C(F)(F)F)N1 yielded an IC90 [1] of 44 nM, an IC90 [2] of 1310 nM and an IC90 ([3]; Human immunodeficiency virus 1) of 73 nM. The pIC50 [4] was 7.10, the IC90 [5] was 2.3 nM and the IC90 [6] was 41 nM.

For O=C1Nc2ccc(F)c(F)c2[C@@](C#CC2CC2)(C(F)(F)F)N1 (stereo in doubt) [listing 1 of 2 here], the Free (Homo sapiens [7]) was 2.8%, the Free (Homo sapiens [8]) was 37% and the IC90 [9] was 18 nM.

For O=C1Nc2ccc(Cl)cc2[C@@](C#CC2CC2)(C(F)(F)F)N1 (stereo in doubt) [listing 1 of 2 here], the IC90 [10] was 210 nM, the IC90 [11] was 10 nM and the IC90 [12] was 3.1 nM. For the same molecule, the IC90 [13] was 4 nM, the IC90 [3] was 10 nM and the IC90 [14] was 270 nM. It also gave an IC90 [15] of 13 nM, an IC90 (MT2 [16]) greater than 2800 nM and an IC90 (MT2 [17]) of 2 nM. It also gave an IC90 (MT2 [18]) of 2.7 nM, an IC90 (MT2 [19]) of 17 nM and an IC90 [20] of 59 nM. It also gave an IC90 [21] of 3900 nM, an IC90 [22] of 190 nM and an IC90 [23] of 5 nM. The IC90 [24] was 2.5 nM, the IC90 [25] was 2 nM and the IC90 [26] was 40 nM. For the same molecule, the Free (Homo sapiens [27]) was 1.5% and the Free (Homo sapiens [28]) was 31%.

O=C1Nc2ccc(Cl)cc2[C@](C#CC2CC2)(C(F)(F)F)N1 gave an IC90 [29] of 34000 nM and an IC90 [9] of 267 nM.

With CC(C)C#C[C@]1(C(F)(F)F)NC(=O)Nc2ccc(F)c(F)c21 (stereo in doubt; 37) [listing 1 of 2 here] the IC90 [3] was 9 nM and the IC90 [29] was 1.6 nM.

In the case of CC(C)C#C[C@]1(C(F)(F)F)NC(=O)Nc2ccc(F)c(F)c21 (stereo in doubt; 37) [listing 2 of 2 here], the IC90 [9] was 15 nM.

O=C1Nc2ccc(Cl)cc2[C@@](C#CC2CC2)(C(F)(F)F)N1 (stereo in doubt) [listing 2 of 2 here] gave an IC90 [9] of 31 nM.

For O=C1Nc2ccc(F)c(F)c2[C@@](C#CC2CC2)(C(F)(F)F)N1 (stereo in doubt) [listing 2 of 2 here], the IC90 [10] was 140 nM, the IC90 [11] was 11 nM and the IC90 [12] was 4 nM. It also gave an IC90 [13] of 3 nM, an IC90 [3] of 11 nM and an IC90 [14] of 110 nM. The IC90 [15] was 8 nM, the IC90 (MT2 [30]) was 1.7 nM and the IC90 (MT2 [16]) was greater than 950 nM. It also gave an IC90 (MT2 [17]) of 1.3 nM, an IC90 (MT2 [18]) of 2.3 nM and an IC90 (MT2 [19]) of 6.9 nM. It also gave an IC90 [20] of 41 nM, an IC90 [21] of 1460 nM and an IC90 [22] of 110 nM. For the same molecule, the IC90 [23] was 1.9 nM, the IC90 [24] was 1.6 nM and the IC90 [25] was 1.3 nM. The IC90 [26] was 18 nM.

O=C1Nc2ccc(Cl)cc2[C@@](C#CC2CC2)(C(F)(F)F)O1 [EFAVIRENZ] showed an IC90 [31] of 17 nM, an IC90 [32] of 8100 nM and an IC90 [2] of 1060 nM. For the same molecule, the IC90 ([3]; Human immunodeficiency virus 1) was 64 nM, the IC90 [33] was 77 nM and the IC90 [34] was 120 nM. For the same molecule, the IC90 [35] was 15700 nM, the IC90 (MT2 [36]) was greater than 3000 nM and the IC90 (MT2 [37]) was 2.8 nM. It also gave an IC90 (MT2 [38]) of 17 nM, an IC90 (MT2 [39]) of 1.7 nM and an IC90 (MT2 [40]) of 2.4 nM. The IC90 [41] was 2400 nM, the IC90 [42] was 650 nM and the IC90 [43] was 310000 nM. It also gave an IC90 [44] of 2.8 nM, an IC90 [45] of 8.5 nM and a Free [46] of 27%. The IC90 [29] was 1.7 nM, the Free (Homo sapiens [47]) was 0.5% and the IC90 [48] was 33 nM. For the same molecule, the IC90 [49] was 64 nM.

Molecule O=C1Nc2ccc(F)cc2[C@@](C#Cc2ccccn2)(C(F)(F)F)N1 has an IC90 [2] of 3140 nM, an IC90 ([3]; Human immunodeficiency virus 1) of 483 nM and an IC90 [33] of 255 nM. The pIC50 [4] was 6.90, the IC90 [5] was 5 nM and the IC90 [50] was 33 nM.

In the case of COc1ccc2c(c1)[C@@](C#CC(C)C)(C(F)(F)F)NC(=O)N2, the IC90 [2] was 599 nM, the IC90 ([3]; Human immunodeficiency virus 1) was 56 nM and the IC90 [33] was 28 nM. The pIC50 [4] was 6.40, the IC90 [5] was 3.8 nM and the IC90 [50] was 42 nM.
